molecular target: human P2X7 (Homo sapiens (Human), UniProt Q99572); assay: P2X7 antagonism in human PBMCs (IL-1β release after LPS + Bz-ATP, ELISA); type: cell-based; details: 10 μM test compound, human PBMCs, LPS + Bz-ATP
Sequence (Q99572 whole entry): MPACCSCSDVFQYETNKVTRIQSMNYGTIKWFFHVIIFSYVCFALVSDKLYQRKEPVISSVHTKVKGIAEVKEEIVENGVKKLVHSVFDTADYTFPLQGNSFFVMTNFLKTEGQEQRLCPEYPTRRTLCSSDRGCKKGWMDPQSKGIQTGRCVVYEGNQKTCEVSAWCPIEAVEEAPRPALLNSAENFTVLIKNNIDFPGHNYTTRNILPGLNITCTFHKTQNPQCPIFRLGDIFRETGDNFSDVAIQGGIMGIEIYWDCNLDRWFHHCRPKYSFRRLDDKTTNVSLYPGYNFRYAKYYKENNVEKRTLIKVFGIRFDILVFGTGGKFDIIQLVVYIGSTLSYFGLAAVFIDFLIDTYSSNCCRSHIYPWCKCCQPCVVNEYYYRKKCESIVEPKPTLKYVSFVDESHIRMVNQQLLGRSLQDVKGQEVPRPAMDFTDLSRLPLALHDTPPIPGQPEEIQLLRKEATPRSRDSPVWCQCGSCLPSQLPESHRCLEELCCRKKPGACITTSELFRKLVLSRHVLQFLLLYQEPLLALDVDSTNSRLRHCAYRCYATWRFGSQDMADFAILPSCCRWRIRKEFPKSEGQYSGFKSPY

Question: How did the “PBMC 10 μM (% control)” value turn out when `C[C@H]1Cc2c(nnn2-c2ccsc2)CN1C(=O)c1cccc(C(F)(F)F)c1Cl` [Example 420, (S)-(2-chloro-3-(trifluoromethyl)phenyl)(6-methyl-1-(thiophen-3-yl)-6,7-dihydro-1H-[1,2,3]triazolo[4,5-c]pyridin-5(4H)-yl)methanone] was run?
Answer: 0.0 % control

Question: How did the “PBMC 10 μM (% control)” value turn out when `CCn1ccc(-n2nnc3c2C[C@H](C)N(C(=O)c2ccnc(C(F)(F)F)c2F)C3)n1` [Example 408, (S)-(1-(1-ethyl-1H-pyrazol-3-yl)-6-methyl-6,7-dihydro-1H-[1,2,3]triazolo[4,5-c]pyridin-5(4H)-yl)(3-fluoro-2-(trifluoromethyl)pyridin-4-yl)methanone] was run?
Answer: 53.6 % control

same assay, conditions: human PBMCs, test compound 1 μM

Question: `O=C(c1cccc(Cl)c1Cl)N1CCc2c(nnn2-c2ccccc2)C1` [Example 62, 5-[(2,3-Dichlorophenyl)carbonyl]-1-phenyl-4,5,6,7-tetrahydro-1H-[1,2,3]triazolo[4,5-c]pyridine] was tested. Which “PBMC 1 μM (% control)” value did it give?
Answer: 5.2 % control

Question: How did the “PBMC 1 μM (% control)” value turn out when `O=C(c1cccc(C(F)(F)F)c1Cl)N1CCc2c(nnn2-c2cnccn2)C1` [Example 91, 5-{[2-Chloro-3-(trifluoromethyl)phenyl]carbonyl}-1-pyrazin-2-yl-4,5,6,7-tetrahydro-1H-[1,2,3]triazolo[4,5-c]pyridine] was run?
Answer: 6.1 % control

Question: For `O=C(c1ccnc(Cl)c1Cl)N1CCc2c(-c3ccccc3)n[nH]c2C1` [Example 104, 6-[(2,3-Dichloropyridin-4-yl)carbonyl]-3-phenyl-4,5,6,7-tetrahydro-1H-pyrazolo[3,4-c]pyridine], which “PBMC 1 μM (% control)” value is on record?
Answer: 8.9 % control

Question: Which “PBMC 1 μM (% control)” value does the source give for `CC1c2nnn(-c3cnccn3)c2CCN1C(=O)c1cccc(C(F)(F)F)c1Cl` (centres unmarked) [Example 73, 5-{[2-Chloro-3-(trifluoromethyl)phenyl]carbonyl}-4-methyl-1-pyrazin-2-yl-4,5,6,7-tetrahydro-1H-[1,2,3]triazolo[4,5-c]pyridine] here?
Answer: 4.3 % control

Question: Which “PBMC 1 μM (% control)” value does the source give for `O=C(c1cccc(C(F)(F)F)c1Cl)N1CCc2c(ncn2-c2ccccc2)C1CO` (centres unmarked) [Example 30, (5-{[2-Chloro-3-(trifluoromethyl)phenyl]carbonyl}-1-phenyl-4,5,6,7-tetrahydro-1H-imidazo[4,5-c]pyridin-4-yl)methanol] here?
Answer: 87.0 % control

same assay, conditions: human PBMCs, test compound 10 μM

Question: `CC1Cc2c(nnn2-c2ncccc2F)CN1C(=O)c1cccc(Cl)c1Cl` (centres unmarked) [Example 161, (2,3-Dichlorophenyl)(1-(3-fluoropyridin-2-yl)-6-methyl-6,7-dihydro-1H-[1,2,3]triazolo[4,5-c]pyridin-5(4H)-yl)methanone] was tested. Which “PBMC 10 μM (% control)” value did it give?
Answer: −0.9 % control

Question: How did the “PBMC 10 μM (% control)” value turn out when `C[C@@H]1Cc2c(nnn2-c2ccccn2)CN1C(=O)c1cccc(C(F)(F)F)c1Cl` (single isomer, unassigned) [Example 119, 5-{[2-Chloro-3-(trifluoromethyl)phenyl]carbonyl}-(R*)-6-methyl-1-pyridin-2-yl-4,5,6,7-tetrahydro-1H-[1,2,3]triazolo[4,5-c]pyridine] was run?
Answer: 20.0 % control

Question: How did the “PBMC 10 μM (% control)” value turn out when `Cc1ccnc(-n2nnc3c2CCN(C(=O)c2cccc(OC(F)(F)F)c2)[C@@H]3C)c1` (single isomer, unassigned) [Example 376, (R*)-(4-methyl-1-(4-methylpyridin-2-yl)-6,7-dihydro-1H-[1,2,3]triazolo[4,5-c]pyridin-5(4H)-yl)(3-(trifluoromethoxy)phenyl)methanone] was run?
Answer: 96.3 % control

Question: How did the “PBMC 10 μM (% control)” value turn out when `CC1c2nnn(-c3ncco3)c2CCN1C(=O)c1cccc(C(F)(F)F)c1Cl` (centres unmarked) [Example 250, (2-Chloro-3-(trifluoromethyl)phenyl)(4-methyl-1-(oxazol-2-yl)-6,7-dihydro-1H-[1,2,3]triazolo[4,5-c]pyridin-5(4H)-yl)methanone] was run?
Answer: −1.3 % control

Question: How did the “PBMC 10 μM (% control)” value turn out when `Cc1cc(-n2nnc3c2CCN(C(=O)c2cc(C(F)(F)F)ccc2Cl)[C@@H]3C)ncc1F` (single isomer, unassigned) [Example 353, (R*)-(2-chloro-5-(trifluoromethyl)phenyl)(1-(5-fluoro-4-methylpyridin-2-yl)-4-methyl-6,7-dihydro-1H-[1,2,3]triazolo[4,5-c]pyridin-5(4H)-yl)methanone] was run?
Answer: 107.5 % control

Question: With `C[C@H]1Cc2c(nnn2-c2ccc(F)cc2)[C@H](C)N1C(=O)c1cccc(C(F)(F)F)c1Cl` [Example 285, (2-chloro-3-(trifluoromethyl)phenyl)((4S,6S)-1-(4-fluorophenyl)-4,6-dimethyl-6,7-dihydro-1H-[1,2,3]triazolo[4,5-c]pyridin-5(4H)-yl)methanone] as the compound, how does the “PBMC 10 μM (% control)” value read?
Answer: −2.6 % control

Question: `C[C@H]1Cc2c(nnn2-c2ncc(F)cn2)CN1C(=O)c1ccc(F)c(Cl)c1Cl` (single isomer, unassigned) [Example 215, (6S*)-5-[(2,3-Dichloro-4-fluorophenyl)carbonyl]-1-(5-fluoropyrimidin-2-yl)-6-methyl-4,5,6,7-tetrahydro-1H-[1,2,3]triazolo[4,5-c]pyridine] was tested. Which “PBMC 10 μM (% control)” value did it give?
Answer: 2.7 % control

Question: With `COCCn1ccc(-n2nnc3c2CCN(C(=O)c2cccc(C(F)(F)F)c2Cl)[C@H]3C)n1` (single isomer, unassigned) [Example 249, (S*)-(2-Chloro-3-(trifluoromethyl)phenyl)(1-(1-(2-methoxyethyl)-1H-pyrazol-3-yl)-4-methyl-6,7-dihydro-1H-[1,2,3]triazolo[4,5-c]pyridin-5(4H)-yl)methanone] as the compound, how does the “PBMC 10 μM (% control)” value read?
Answer: 5.1 % control

Question: With `CC1CN(C(=O)c2cccc(Cl)c2Cl)Cc2nnn(-c3ccccc3)c21` (centres unmarked) [Example 244, (2,3-Dichlorophenyl)(7-methyl-1-phenyl-6,7-dihydro-1H-[1,2,3]triazolo[4,5-c]pyridin-5(4H)-yl)methanone] as the compound, how does the “PBMC 10 μM (% control)” value read?
Answer: −2.3 % control

Question: Which “PBMC 10 μM (% control)” value does the source give for `CC1Cc2c(nnn2-c2cc(F)ccn2)CN1C(=O)c1cccc(Cl)c1Cl` (centres unmarked) [Example 173, 5-[(2,3-Dichlorophenyl)carbonyl]-1-(4-fluoropyridin-2-yl)-6-methyl-4,5,6,7-tetrahydro-1H-[1,2,3]triazolo[4,5-c]pyridine] here?
Answer: 8.8 % control

Question: How did the “PBMC 10 μM (% control)” value turn out when `Cc1cccc(-n2nnc3c2CCN(C(=O)c2cccc(C(F)(F)F)c2Cl)[C@H]3C)n1` (single isomer, unassigned) [Example 227, (S*)-(2-chloro-3-(trifluoromethyl)phenyl)(4-methyl-1-(6-methylpyridin-2-yl)-6,7-dihydro-1H-[1,2,3]triazolo[4,5-c]pyridin-5(4H)-yl)methanone] was run?
Answer: −0.4 % control

Question: How did the “PBMC 10 μM (% control)” value turn out when `Cc1cccc(-n2nnc3c2CCN(C(=O)c2cccc(Cl)c2Cl)[C@H]3C)n1` (single isomer, unassigned) [Example 390, (S*)-(2,3-dichlorophenyl)(4-methyl-1-(6-methylpyridin-2-yl)-6,7-dihydro-1H-[1,2,3]triazolo[4,5-c]pyridin-5(4H)-yl)methanone] was run?
Answer: 6.5 % control

Question: Which “PBMC 10 μM (% control)” value does the source give for `C[C@@H]1Cc2c(nnn2-c2ccn[nH]2)CN1C(=O)c1cccc(C(F)(F)F)c1F` (single isomer, unassigned) [Example 348, (R*)-(2-fluoro-3-(trifluoromethyl)phenyl)(6-methyl-1-(1H-pyrazol-5-yl)-6,7-dihydro-1H-[1,2,3]triazolo[4,5-c]pyridin-5(4H)-yl)methanone] here?
Answer: 77.7 % control

Question: With `O=C(c1cccc(Cl)c1Cl)N1CCc2c(ncn2-c2ccccn2)C1` [Example 4, (2,3-Dichlorophenyl)(1-(pyridin-2-yl)-6,7-dihydro-1H-imidazo[4,5-c]pyridin-5(4H)-yl)methanone] as the compound, how does the “PBMC 10 μM (% control)” value read?
Answer: −3.7 % control

Question: For `C[C@H]1c2nnn(-c3cccc(F)n3)c2CCN1C(=O)c1cccc(C(F)(F)F)c1Cl` (single isomer, unassigned) [Example 147, (S*)-(2-Chloro-3-(trifluoromethyl)phenyl)(1-(6-fluoropyridin-2-yl)-4-methyl-6,7-dihydro-1H-[1,2,3]triazolo[4,5-c]pyridin-5(4H)-yl)methanone], which “PBMC 10 μM (% control)” value is on record?
Answer: −8.9 % control

Question: For `COc1ccnc(-n2nnc3c2CCN(C(=O)c2cccc(C(F)(F)F)c2Cl)C3)c1` [Example 136, (2-Chloro-3-(trifluoromethyl)phenyl)(1-(4-methoxypyridin-2-yl)-6,7-dihydro-1H-[1,2,3]triazolo[4,5-c]pyridin-5(4H)-yl)methanone], which “PBMC 10 μM (% control)” value is on record?
Answer: 5.3 % control

Question: `CC1c2nnn(-c3cncnc3)c2CCN1C(=O)c1cccc(C(F)(F)F)c1Cl` (centres unmarked) [Example 177, (2-Chloro-3-(trifluoromethyl)phenyl)(4-methyl-1-(pyrimidin-5-yl)-6,7-dihydro-1H-[1,2,3]triazolo[4,5-c]pyridin-5(4H)-yl)methanone] was tested. Which “PBMC 10 μM (% control)” value did it give?
Answer: 8.6 % control

Question: Which “PBMC 10 μM (% control)” value does the source give for `Cc1cc(-n2nnc3c2CCN(C(=O)c2cccc(C(F)(F)F)c2Cl)[C@H]3C)ncc1F` (single isomer, unassigned) [Example 383, (S*)-(2-chloro-3-(trifluoromethyl)phenyl)(1-(5-fluoro-4-methylpyridin-2-yl)-4-methyl-6,7-dihydro-1H-[1,2,3]triazolo[4,5-c]pyridin-5(4H)-yl)methanone] here?
Answer: 87.3 % control

Question: Which “PBMC 10 μM (% control)” value does the source give for `Cc1c(C(=O)N2CCc3c(nnn3-c3ccccn3)C2)ccc(F)c1F` [Example 132, (3,4-Difluoro-2-methylphenyl)(1-(pyridin-2-yl)-6,7-dihydro-1H-[1,2,3]triazolo-[4,5-c]pyridin-5(4H)-yl)methanone] here?
Answer: 3.8 % control

Question: Which “PBMC 10 μM (% control)” value does the source give for `Cc1ccc(-n2nnc3c2CCN(C(=O)c2cccc(C(F)(F)F)c2Cl)[C@@H]3C)nc1` (single isomer, unassigned) [Example 255, (R*)-(2-chloro-3-(trifluoromethyl)phenyl)(4-methyl-1-(5-methylpyridin-2-yl)-6,7-dihydro-1H-[1,2,3]triazolo[4,5-c]pyridin-5(4H)-yl)methanone] here?
Answer: −5.5 % control

Question: `Cc1ccnc(-n2nnc3c2CCN(C(=O)c2cccc(Cl)c2Cl)C3C)c1` (centres unmarked) [Example 237, (2,3-dichlorophenyl)(4-methyl-1-(4-methylpyridin-2-yl)-6,7-dihydro-1H-[1,2,3]triazolo[4,5-c]pyridin-5(4H)-yl)methanone] was tested. Which “PBMC 10 μM (% control)” value did it give?
Answer: −5.1 % control

Question: Which “PBMC 10 μM (% control)” value does the source give for `CC1CN(C(=O)c2cccc(Cl)c2Cl)Cc2nnn(-c3ccc(F)cc3)c21` (centres unmarked) [Example 247, (2,3-Dichlorophenyl)(1-(4-fluorophenyl)-7-methyl-6,7-dihydro-1H-[1,2,3]triazolo[4,5-c]pyridin-5(4H)-yl)methanone] here?
Answer: −0.8 % control

— patent US10112937B2, “P2X7 modulators and methods of use” (Janssen Pharmaceutica NV, priority 2013, dated 2018)
